In patent US11129820B2, “Ferroportin-inhibitor salts” (Vifor (International) AG, priority 2017, dated 2021):
Values joined by “and” are separate entries in the source; they are usually repeats but may differ in a detail not shown here. Identical values can stand only once. Marks after values point to notes of the source that are not given here.

Key:
naïve WT C57BL/6 mice = test: Hypoferremia in naïve mice; format: in vivo, mouse; details: Mus musculus, po, 3 h, relative to vehicle, read-out: Serum Iron Reduction at 3 h (%); for inhibition in vivo at 10 mg/kg: Dose 10 mg/kg p.o.; for inhibition in vivo at 30 mg/kg: Dose 30 mg/kg p.o.; for inhibition in vivo at 100 mg/kg: Dose 100 mg/kg p.o.
Method: Injection of synthetic hepcidin in wild-type (WT) naïve mice results in a reduction of serum iron levels (40-50% from the vehicle control) with a maximal effect at 3-4 hours post treatment (Rivera, 2005; FIG. 12A).
Female C57BL/6 mice (Janvier, France) at age of 9 weeks are fed a standard diet (Harlan Provimi Kliba 3436) and treated per os (p.o.) with compounds or the corresponding amount of vehicle at a volume of 10 ml/kg body weight. Fpn inhibitors are formulated in 0.5% methylcellulose/water or 20% cremophor EL/water and dosed p.o. in mice at 10, 30 or 100 mg/kg body weight. Three hours later, mice are pre-terminally anesthetized in isoflurane chambers and blood is collected by retro-orbital bleeding. Mice are sacrificed by cervical dislocation and spleens, livers and duodena were harvested and used for biomarker analysis. All experiments are conducted in compliance with the license approved by the responsible veterinarian authorities. Serum is isolated by centrifugation of blood into gel-containing microtainers and serum iron is determined by the MULTIGENT Iron assay (Abbott Diagnostics, 6K95). Eight mice per group are used and one-way ANOVA with Bonferroni's multiple comparison test is performed to analyze the statistical differences between the experimental groups.
Table 6 Efficacy of Fpn inhibitors tested in the naïve mouse hypoferremia model. Serum iron reduction induced by selected ferroportin inhibitors dosed p.o. in naïve WT C57BL/6 mice at 10, 30 and 100 mg/kg. Relative serum iron reduction at 3 h after dosing was calculated by subtracting the average of serum iron values of animals dosed with the Fpn inhibitor from that of vehicle-treated animals. The difference in average serum iron values between vehicle and compound treated groups was then divided by the average of serum iron of the vehicle control group and listed as percentage.

[1] = tested on: beta2-microglobulin deficient (b2m−/−) mice; test: Correction of hyperferremia in beta2-microglobulin deficient mice; format: in vivo, mouse
Method: Female and male homozygous b2m−/− mice are supplied from Jackson Laboratories (B6.129P2-B2mtm1Unc/J, Stock Number: 002087) at age of 6 to 7 weeks and fed standard diet (Harlan Provimi Kliba 3436) ad libitum. Age and gender matched WT C57BL/6 mice are supplied by Charles River. To study the acute effects of ferroportin (Fpn) inhibitors in iron overload b2m−/− mice are treated with compounds or the corresponding amount of vehicle at a volume of 10 ml/kg body weight. Fpn inhibitor compounds are formulated in 0.5% methylcellulose/water or 20% cremophor EL/water and dosed p.o. in mice at 50 mg/kg body weight. WT controls received only vehicle. Three hours later, mice are pre-terminally anesthetized in isoflurane chambers and blood is collected by retro-orbital bleeding. Mice are sacrificed by cervical dislocation and spleens, livers and duodena are harvested and used for biomarker analysis. All experiments are performed in compliance with license approved by the responsible veterinarian authorities. Serum is isolated by centrifugation of blood into gel-containing microtainers (BD Biosciences) and serum iron is determined by the MULTIGENT Iron assay (Abbott Diagnostics, Cat. 6K95). Four to nine mice per group are used and one-way ANOVA with Bonferroni's multiple comparison test is applied to analyze the statistical differences between the experimental groups.
Blood is collected 1 (#) or 3 (##) hours after oral administration of the indicated doses of Fpn inhibitors to beta2-microglobulin deficient mice and serum iron concentrations are measured. Relative reduction (%) of serum iron levels are shown, which were calculated by subtracting the average of serum iron values of animals dosed with the Fpn inhibitor from that of vehicle-treated animals. The difference in average serum iron values between vehicle and compound treated groups was then divided by the average of serum iron of the vehicle control group and listed as percentage. Values are listed separately for female (♀) and male (♂) animals, because a marked sex-dependent difference in efficacy was noted. Statistically significant (2-way ANOVA with Bonferroni post test) differences observed between compound-treated and vehicle-treated groups are indicated (*** p<0.001; ** p<0.01, p<0.05).

[2] = female ♀, 20 mg/kg oral, blood collection time not marked
[3] = female ♀, 60 mg/kg oral, blood collection time not marked
[4] = male ♂, 20 mg/kg oral, blood collection time not marked
[5] = male ♂, 60 mg/kg oral, blood collection time not marked

Row | SMILES | inhibition in vivo at 10 mg/kg (naïve WT C57BL/6 mice) [%] | inhibition in vivo at 30 mg/kg (naïve WT C57BL/6 mice) [%] | inhibition in vivo at 100 mg/kg (naïve WT C57BL/6 mice) [%] | Correction of elevated serum iron, in words ([1]; b2m−/− mice, 50 mg/kg p.o., 3 h) | Serum Iron Reduction (%) ([1]; female ♀, 20 mg/kg oral, 1 hour (#)) | Serum Iron Reduction (%) ([1]; female ♀, 60 mg/kg oral, 1 hour (#), 60 mg/kg) | Serum Iron Reduction (%) ([1]; male ♂, 20 mg/kg oral, 1 hour (#)) | Serum Iron Reduction (%) ([1]; male ♂, 60 mg/kg oral, 1 hour (#), 60 mg/kg) | Serum Iron Reduction (%) [1, 2] | Serum Iron Reduction (%) [1, 3] | Serum Iron Reduction (%) [1, 4] | Serum Iron Reduction (%) [1, 5]
1 | O=C(NCc1ncccc1F)c1csc(CCNCc2nc3ccccc3[nH]2)n1 [Example Compound No. 40] | 10 | 30 | 50 | corrected the elevated serum iron to the levels observed in WT controls | 0 | 13% and 10% | 35** % | 32** % and 58** % |  |  |  | 
2 | O=C(NCc1ncccc1F)c1cnc(CCNCCc2nc3ccccc3[nH]2)o1 [Example Compound No. 1] | 0 | 28 | 51 |  |  |  |  |  | 31** % | 52** % | 31** % | 59** %
3 | O=C(NCc1ncccc1F)c1cnc(C2CN(CCc3nc4ccccc4[nH]3)C2)o1 [Example Compound No. 2] | 9 | 26 | 50 |  |  |  |  |  | 27% | 57** % | 29% | 66** %
